According to ChEMBL document CHEMBL2331502, “Discovery of a novel series of quinolone α7 nicotinic acetylcholine receptor agonists” (Bioorg Med Chem Lett, 2013):

Key:
[1] = Ratio of drug level in brain to plasma in ip dosed rat after 30 mins; format: ADME, organism-based; conditions: read-out: BPR
[2] = Efflux ratio of the compound in human Caco2 cells; format: ADME, cell-based; conditions: Caco-2
[3] = Permeability of the compound at pH 7.4 by PAMPA; format: ADME; conditions: read-out: permeability
[4] = biological target: Neuronal acetylcholine receptor subunit alpha-7 (Rattus norvegicus) (UniProt Q05941); assay: Agonist activity at rat alpha7 nAChR expressed in HEK293 cells assessed as area under the curve of acetylcholine-induced response by whole-cell patch clamp electrophysiology paradigm assay relative to control; format: cell-based
[5] = biological target: T1, Neuronal acetylcholine receptor subunit alpha-7 (Rattus norvegicus, UniProt Q05941); assay: Agonist activity at rat alpha7 nAChR expressed in HEK293 cells assessed as calcium ion influx by FRET assay; format: cell-based
[6] = Dissociation constant, pKa of the compound; format: physicochemical
[7] = biological target: T1, Neuronal acetylcholine receptor subunit alpha-7; assay: Agonist activity at rat alpha7 nAChR expressed in HEK293 cells assessed as area under the curve of acetylcholine-induced response by whole-cell patch clamp electrophysiology paradigm assay; format: cell-based
[8] = biological target: Neuronal acetylcholine receptor subunit alpha-7 (Rattus norvegicus) (UniProt Q05941); assay: Agonist activity at rat alpha7 nAChR expressed in HEK293 cells assessed as peak intensity of acetylcholine-induced response by whole-cell patch clamp electrophysiology paradigm assay relative to control; format: cell-based
[9] = Ratio of drug level in brain to plasma in sc dosed rat after 30 mins; format: ADME, organism-based; conditions: read-out: BPR
[10] = biological target: Neuronal acetylcholine receptor; alpha4/beta2 (Homo sapiens, UniProt P17787+P43681); assay: Agonist activity at alpha4beta2 nAChR (unknown origin); format: protein-complex assay
[11] = biological target: Neuronal acetylcholine receptor; alpha3/beta4 (Homo sapiens, UniProt P30926+P32297); assay: Agonist activity at alpha3beta4 nAChR (unknown origin); format: protein-complex assay
[12] = biological target: Acetylcholine receptor; alpha1/beta1/delta/gamma (Homo sapiens, UniProt P02708+P07510+P11230+Q07001); assay: Agonist activity at alpha1beta1deltaepsilon nAChR (unknown origin); format: protein-complex assay
[13] = biological target: T2, 5-hydroxytryptamine receptor 3A (Homo sapiens, UniProt P46098); assay: Inhibition of 5HT3 receptor (unknown origin)
T2 sequence (P46098 whole entry): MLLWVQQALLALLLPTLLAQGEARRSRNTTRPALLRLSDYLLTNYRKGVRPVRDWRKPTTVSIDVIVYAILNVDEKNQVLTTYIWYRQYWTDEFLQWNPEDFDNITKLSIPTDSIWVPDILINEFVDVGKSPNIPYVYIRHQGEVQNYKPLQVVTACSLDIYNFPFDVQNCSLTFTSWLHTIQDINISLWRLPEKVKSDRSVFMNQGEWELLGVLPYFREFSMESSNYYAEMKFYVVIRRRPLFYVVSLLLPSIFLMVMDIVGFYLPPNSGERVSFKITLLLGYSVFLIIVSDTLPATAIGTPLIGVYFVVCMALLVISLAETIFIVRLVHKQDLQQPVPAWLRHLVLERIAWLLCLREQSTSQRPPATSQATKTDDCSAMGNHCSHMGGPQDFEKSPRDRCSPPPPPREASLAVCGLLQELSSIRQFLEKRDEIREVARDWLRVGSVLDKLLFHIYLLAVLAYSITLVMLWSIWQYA

[14] = Selectivity ratio of EC50 for alpha4beta2 nAChR (unknown origin) to EC50 for rat alpha7 nAChR
[15] = Selectivity ratio of EC50 for alpha1beta1deltaepsilon nAChR (unknown origin) to EC50 for rat alpha7 nAChR
[16] = Selectivity ratio of IC50 for 5HT3 receptor (unknown origin) to EC50 for rat alpha7 nAChR
[17] = Selectivity ratio of EC50 for alpha3beta4 nAChR (unknown origin) to EC50 for rat alpha7 nAChR

Neuronal acetylcholine receptor subunit alpha-7 (Rattus norvegicus), sequence (Q05941 whole entry): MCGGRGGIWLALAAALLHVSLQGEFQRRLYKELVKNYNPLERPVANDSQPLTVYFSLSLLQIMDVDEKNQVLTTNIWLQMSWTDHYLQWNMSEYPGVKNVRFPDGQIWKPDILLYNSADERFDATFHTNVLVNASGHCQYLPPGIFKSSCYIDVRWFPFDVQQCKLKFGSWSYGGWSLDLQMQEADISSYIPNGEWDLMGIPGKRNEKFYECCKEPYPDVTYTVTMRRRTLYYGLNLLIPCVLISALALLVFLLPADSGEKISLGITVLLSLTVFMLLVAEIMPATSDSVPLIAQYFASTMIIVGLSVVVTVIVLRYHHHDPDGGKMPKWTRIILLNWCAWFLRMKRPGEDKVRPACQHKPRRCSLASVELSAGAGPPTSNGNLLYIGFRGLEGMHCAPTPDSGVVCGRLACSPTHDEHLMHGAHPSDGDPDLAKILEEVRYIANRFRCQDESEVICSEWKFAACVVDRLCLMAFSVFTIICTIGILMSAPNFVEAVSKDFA
T1 sequence (Q05941 whole entry): as above
Neuronal acetylcholine receptor; alpha3/beta4, sequence (P30926 whole entry): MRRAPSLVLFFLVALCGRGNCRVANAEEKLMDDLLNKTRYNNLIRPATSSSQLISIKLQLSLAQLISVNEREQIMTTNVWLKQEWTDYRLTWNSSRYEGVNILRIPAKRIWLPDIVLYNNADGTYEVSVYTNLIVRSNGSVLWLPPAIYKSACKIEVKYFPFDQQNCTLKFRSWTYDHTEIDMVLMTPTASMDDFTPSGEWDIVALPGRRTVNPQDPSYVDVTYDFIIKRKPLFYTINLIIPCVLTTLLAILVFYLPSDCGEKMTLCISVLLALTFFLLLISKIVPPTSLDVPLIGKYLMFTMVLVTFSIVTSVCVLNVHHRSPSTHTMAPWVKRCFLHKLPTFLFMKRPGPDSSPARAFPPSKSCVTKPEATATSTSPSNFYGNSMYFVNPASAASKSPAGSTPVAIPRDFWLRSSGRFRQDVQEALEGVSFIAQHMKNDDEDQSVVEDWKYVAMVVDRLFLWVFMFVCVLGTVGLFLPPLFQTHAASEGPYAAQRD
Neuronal acetylcholine receptor; alpha3/beta4, sequence (P32297 whole entry): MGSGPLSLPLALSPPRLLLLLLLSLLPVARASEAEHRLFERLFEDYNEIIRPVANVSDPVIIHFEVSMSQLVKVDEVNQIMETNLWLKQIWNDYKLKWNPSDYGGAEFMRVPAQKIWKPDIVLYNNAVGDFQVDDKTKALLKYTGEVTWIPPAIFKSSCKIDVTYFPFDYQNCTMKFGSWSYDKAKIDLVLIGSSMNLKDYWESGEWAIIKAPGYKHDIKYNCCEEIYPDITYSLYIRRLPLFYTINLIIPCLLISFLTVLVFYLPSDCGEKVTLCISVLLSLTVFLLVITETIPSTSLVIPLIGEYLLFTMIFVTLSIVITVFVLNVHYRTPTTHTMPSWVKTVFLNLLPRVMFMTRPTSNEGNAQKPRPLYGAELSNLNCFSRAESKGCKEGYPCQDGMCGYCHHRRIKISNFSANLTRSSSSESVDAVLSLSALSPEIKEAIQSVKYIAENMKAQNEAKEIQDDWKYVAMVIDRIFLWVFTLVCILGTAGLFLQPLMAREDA
Neuronal acetylcholine receptor; alpha4/beta2, sequence (P17787 whole entry): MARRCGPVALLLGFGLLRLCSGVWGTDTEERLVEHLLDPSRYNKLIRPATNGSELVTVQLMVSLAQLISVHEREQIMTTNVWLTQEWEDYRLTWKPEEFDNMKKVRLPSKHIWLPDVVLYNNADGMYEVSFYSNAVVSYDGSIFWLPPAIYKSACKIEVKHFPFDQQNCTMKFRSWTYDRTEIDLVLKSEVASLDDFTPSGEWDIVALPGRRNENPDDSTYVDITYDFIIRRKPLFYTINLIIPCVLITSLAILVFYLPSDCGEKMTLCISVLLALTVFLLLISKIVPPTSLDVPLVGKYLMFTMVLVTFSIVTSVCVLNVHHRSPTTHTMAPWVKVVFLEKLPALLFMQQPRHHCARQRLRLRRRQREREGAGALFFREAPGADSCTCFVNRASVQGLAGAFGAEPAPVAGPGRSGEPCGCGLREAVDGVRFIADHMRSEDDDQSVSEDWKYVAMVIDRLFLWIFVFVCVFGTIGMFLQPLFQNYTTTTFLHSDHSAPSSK
Neuronal acetylcholine receptor; alpha4/beta2, sequence (P43681 whole entry): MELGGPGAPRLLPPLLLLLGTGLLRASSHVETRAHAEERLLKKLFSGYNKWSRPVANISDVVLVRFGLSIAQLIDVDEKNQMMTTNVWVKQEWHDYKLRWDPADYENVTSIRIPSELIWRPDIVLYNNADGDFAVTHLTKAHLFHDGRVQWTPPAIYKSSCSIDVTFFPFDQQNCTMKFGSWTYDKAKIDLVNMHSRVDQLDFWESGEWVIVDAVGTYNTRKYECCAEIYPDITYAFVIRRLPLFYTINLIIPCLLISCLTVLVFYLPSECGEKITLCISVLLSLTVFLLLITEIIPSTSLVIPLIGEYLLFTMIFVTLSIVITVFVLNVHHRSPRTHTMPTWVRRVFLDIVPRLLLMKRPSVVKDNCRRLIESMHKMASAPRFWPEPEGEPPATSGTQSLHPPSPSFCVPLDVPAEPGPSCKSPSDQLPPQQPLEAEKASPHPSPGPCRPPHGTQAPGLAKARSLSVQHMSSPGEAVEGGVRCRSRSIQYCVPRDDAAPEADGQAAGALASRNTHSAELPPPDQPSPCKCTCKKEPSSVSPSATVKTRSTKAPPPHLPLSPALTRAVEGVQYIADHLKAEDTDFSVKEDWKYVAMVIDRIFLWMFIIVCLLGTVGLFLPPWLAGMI
Acetylcholine receptor; alpha1/beta1/delta/gamma, sequence (P02708 whole entry): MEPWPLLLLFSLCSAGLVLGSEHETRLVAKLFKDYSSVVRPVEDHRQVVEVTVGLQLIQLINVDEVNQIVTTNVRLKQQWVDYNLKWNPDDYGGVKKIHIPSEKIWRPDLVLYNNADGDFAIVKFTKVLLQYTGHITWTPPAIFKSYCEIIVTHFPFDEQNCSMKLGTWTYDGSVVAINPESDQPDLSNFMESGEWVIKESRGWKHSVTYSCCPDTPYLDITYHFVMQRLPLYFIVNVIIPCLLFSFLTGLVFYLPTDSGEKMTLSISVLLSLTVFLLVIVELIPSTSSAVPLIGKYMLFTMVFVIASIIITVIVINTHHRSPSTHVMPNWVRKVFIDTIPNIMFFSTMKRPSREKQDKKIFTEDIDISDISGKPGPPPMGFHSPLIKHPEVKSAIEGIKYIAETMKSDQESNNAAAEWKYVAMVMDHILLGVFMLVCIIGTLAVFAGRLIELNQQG
Acetylcholine receptor; alpha1/beta1/delta/gamma, sequence (P07510 whole entry): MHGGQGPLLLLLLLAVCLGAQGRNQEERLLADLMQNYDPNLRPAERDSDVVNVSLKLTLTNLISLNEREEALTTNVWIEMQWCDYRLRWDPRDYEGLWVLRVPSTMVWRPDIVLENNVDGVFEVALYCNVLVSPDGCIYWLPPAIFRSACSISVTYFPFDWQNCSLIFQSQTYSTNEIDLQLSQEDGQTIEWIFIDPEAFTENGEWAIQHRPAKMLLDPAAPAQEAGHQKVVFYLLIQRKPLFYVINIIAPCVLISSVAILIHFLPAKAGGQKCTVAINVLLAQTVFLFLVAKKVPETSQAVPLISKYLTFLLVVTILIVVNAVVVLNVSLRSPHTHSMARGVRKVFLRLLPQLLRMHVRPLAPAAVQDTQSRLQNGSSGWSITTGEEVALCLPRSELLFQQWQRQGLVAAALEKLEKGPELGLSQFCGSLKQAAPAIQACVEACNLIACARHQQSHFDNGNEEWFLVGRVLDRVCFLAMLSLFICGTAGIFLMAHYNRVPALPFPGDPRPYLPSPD
Acetylcholine receptor; alpha1/beta1/delta/gamma, sequence (P11230 whole entry): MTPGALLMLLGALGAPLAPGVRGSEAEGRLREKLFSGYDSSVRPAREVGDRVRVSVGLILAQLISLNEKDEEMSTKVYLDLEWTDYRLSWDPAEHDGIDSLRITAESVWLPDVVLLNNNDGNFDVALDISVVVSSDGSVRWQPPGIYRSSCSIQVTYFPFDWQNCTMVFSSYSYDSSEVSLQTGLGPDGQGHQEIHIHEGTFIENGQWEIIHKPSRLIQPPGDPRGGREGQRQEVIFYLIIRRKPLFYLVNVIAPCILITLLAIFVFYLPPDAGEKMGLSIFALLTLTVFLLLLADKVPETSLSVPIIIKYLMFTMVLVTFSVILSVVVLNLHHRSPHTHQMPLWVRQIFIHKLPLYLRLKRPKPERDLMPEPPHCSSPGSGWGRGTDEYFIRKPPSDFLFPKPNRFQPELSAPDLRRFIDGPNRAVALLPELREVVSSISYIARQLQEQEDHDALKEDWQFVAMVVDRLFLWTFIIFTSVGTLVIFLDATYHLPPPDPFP
Acetylcholine receptor; alpha1/beta1/delta/gamma, sequence (Q07001 whole entry): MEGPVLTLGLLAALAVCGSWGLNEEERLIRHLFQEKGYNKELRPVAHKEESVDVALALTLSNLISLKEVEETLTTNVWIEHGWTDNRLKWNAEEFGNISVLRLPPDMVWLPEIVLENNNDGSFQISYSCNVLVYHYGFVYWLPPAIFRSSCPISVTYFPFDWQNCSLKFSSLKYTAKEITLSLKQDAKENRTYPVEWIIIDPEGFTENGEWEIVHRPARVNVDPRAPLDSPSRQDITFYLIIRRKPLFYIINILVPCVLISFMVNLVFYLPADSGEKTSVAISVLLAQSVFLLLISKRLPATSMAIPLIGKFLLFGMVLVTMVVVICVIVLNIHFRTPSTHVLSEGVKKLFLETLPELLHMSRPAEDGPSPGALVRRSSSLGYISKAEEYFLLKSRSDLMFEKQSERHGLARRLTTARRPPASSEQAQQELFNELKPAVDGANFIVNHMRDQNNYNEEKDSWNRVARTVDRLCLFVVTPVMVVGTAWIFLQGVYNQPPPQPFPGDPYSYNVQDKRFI

SMILES: O=c1cc(-c2ccccc2)c2ccccc2n1CC1CN2CCC1CC2 (centres undefined)
- Kp at 0.5 h [1]: 0.02
- efflux ratio [2]: 6.9
- Papp [3]: 90 ×10⁻⁶ cm/s
- Emax [4]: 110%
- EC50 [5]: 150 nM
- pKa [6]: 10.1
- EC50 [7]: 760 nM
- Emax [8]: 60%

SMILES: O=c1cc(-c2ccccc2)c2ccccc2n1CC1CNCCO1 (centres undefined)
- efflux ratio [2]: 1
- Kp at 0.5 h [9]: 0.9
- Papp [3]: 55 ×10⁻⁶ cm/s
- Emax [4]: 41%
- EC50 [5]: 260 nM
- pKa [6]: 8.1
- EC50 [7]: 1200 nM
- Emax [8]: 34%

SMILES: O=c1cc(-c2ccccc2)c2ccccc2n1CC1CCCNC1 (centres undefined)
- Emax [4]: 30%
- EC50 [5]: 210 nM
- EC50 [7]: 2500 nM
- Emax [8]: 60%

SMILES: CNCCCn1c(=O)c(C#N)c(-c2ccccc2)c2ccccc21
- EC50 [5]: 900 nM

SMILES: N#Cc1c(-c2ccccc2)c2ccccc2n(CCCN2CCCC2)c1=O
- EC50 [5]: 9300 nM

SMILES: CCN(C)CCCn1c(=O)c(C#N)c(-c2ccccc2)c2ccccc21
- EC50 [5]: 4300 nM

SMILES: CN(C)CCCn1c(=O)c(C#N)cc2ccccc21
- EC50 [5]: > 10000 nM

SMILES: CN(C)CCCn1ccc(-c2ccccc2)c(C#N)c1=O
- EC50 [5]: > 10000 nM

SMILES: CN(C)CCCn1c(=O)c(C#N)c(-c2ccccc2)c2ccccc21
- EC50 [10]: > 100 µM
- EC50 [11]: > 100 µM
- Emax [4]: 44%
- EC50 [12]: > 100 µM
- IC50 [13]: 19 µM
- EC50 [5]: 1300 nM
- EC50 [7]: 8200 nM
- Emax [8]: 15%

SMILES: CN(C)CCCn1c(=O)cc(-c2ccccc2)c2ccccc21
- EC50 [5]: 2800 nM

SMILES: CN(C)CCn1c(=O)cc(-c2ccccc2)c2ccccc21
- EC50 [5]: > 10000 nM

SMILES: CN(C)CCCCn1c(=O)cc(-c2ccccc2)c2ccccc21
- EC50 [5]: > 10000 nM

SMILES: CC(=O)NCc1cccc(-c2cc(=O)n(CC3CCCNC3)c3ccccc23)c1 (racemic)
- EC50 [5]: 100 nM

SMILES: O=c1cc(-c2ccccc2)c2ccccc2n1CC1CN2CCC1(F)CC2 (racemic)
- efflux ratio [2]: 0.6
- Papp [3]: 38 ×10⁻⁶ cm/s
- pKa [6]: 7.6

SMILES: CC(=O)NCc1cccc(-c2cc(=O)n(CC3CN4CCC3CC4)c3ccccc23)c1 (racemic)
- Ratio EC50 [14]: 100
- Papp [3]: 0.1 ×10⁻⁶ cm/s
- Emax [4]: 84%
- Ratio EC50 [15]: 100
- EC50 [5]: 32 nM
- Ratio IC50/EC50 [16]: 50
- Ratio EC50 [17]: 100
- Emax [8]: 21%

SMILES: CS(=O)(=O)NCc1cccc(-c2cc(=O)n(CC3CN4CCC3CC4)c3ccccc23)c1 (racemic)
- Ratio EC50 [14]: 100
- Emax [4]: 97%
- Ratio EC50 [15]: 100
- EC50 [5]: 14 nM
- EC50 [7]: 260 nM
- Ratio IC50/EC50 [16]: 50
- Ratio EC50 [17]: 100
- Emax [8]: 21%

SMILES: O=c1cc(-c2cccc3[nH]ccc23)c2ccccc2n1CC1CN2CCC1CC2 (racemic)
- Ratio EC50 [14]: 100
- efflux ratio [2]: > 18
- Papp [3]: 40 ×10⁻⁶ cm/s
- Emax [4]: 80%
- Ratio EC50 [15]: 100
- EC50 [5]: 23 nM
- EC50 [7]: 540 nM
- Ratio IC50/EC50 [16]: 50
- Ratio EC50 [17]: 100
- Emax [8]: 62%

SMILES: Cc1ccc(-c2cc(=O)n(CC3CCCNC3)c3ccccc23)cc1 (racemic)
- EC50 [5]: > 10000 nM

SMILES: O=c1cc(-c2cccc3[nH]ccc23)c2ccccc2n1CC1CCCNC1 (racemic)
- EC50 [5]: 110 nM

SMILES: CS(=O)(=O)NCc1cccc(-c2cc(=O)n(CC3CCCNC3)c3ccccc23)c1 (racemic)
- EC50 [5]: 77 nM

SMILES: COc1cccc(-c2cc(=O)n(CC3CCCNC3)c3ccccc23)c1 (racemic)
- EC50 [5]: 1300 nM

SMILES: Cc1ccccc1-c1cc(=O)n(CC2CCCNC2)c2ccccc12 (racemic)
- EC50 [5]: 1500 nM

SMILES: CN1CCCC(Cn2c(=O)c(C#N)c(-c3ccccc3)c3ccccc32)C1 (racemic)
- EC50 [5]: > 10000 nM

SMILES: N#Cc1c(-c2ccccc2)c2ccccc2n(CC2CCCNC2)c1=O (racemic)
- EC50 [5]: 460 nM

SMILES: CC(CN(C)C)Cn1c(=O)cc(-c2ccccc2)c2ccccc21 (racemic)
- EC50 [5]: > 10000 nM

SMILES: CC(CCn1c(=O)cc(-c2ccccc2)c2ccccc21)N(C)C (racemic)
- EC50 [5]: > 10000 nM

SMILES: c1cnc2c(c1)C[C@@]1(CN3CCC1CC3)O2 [AZD0328]
- efflux ratio [2]: 0.9
- Kp at 0.5 h [9]: 1.7
- Papp [3]: 51 ×10⁻⁶ cm/s
- pKa [6]: 8.9
